PubChem BioAssay AID1963429 (Molecular Pharmacology Branch, DTP, NCI, 2024)

Tested on: 126254-015-R-J1-PDC complex spheroid growth, % test/control
Experiment: Anticancer human tumor 126254-015-R-J1-PDC patient-derived soft tissue sarcoma cell line growth inhibition [Asc]
Conditions: for IC50: curve of first compound; for viability, T/C: stronger effect = lower value
In short: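 Complex spheroids combining tumor cells with HUVEC endothelial cells and human MSCs, at 37 degrees C, 5% CO2; agents tested alone or combined, half-log dilutions from at or near clinical Cmax, or 10 microM if Cmax unknown.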

[1] = second compound 0.1 µM, first compound 0.0316 µM
[2] = second compound 0.1 µM, first compound 0.1 µM
[3] = second compound 0.1 µM, first compound 0.316 µM
[4] = second compound 0.1 µM, first compound 1 µM
[5] = second compound 0.1 µM, first compound 3.16 µM
[6] = second compound 0.1 µM, first compound 10 µM
[7] = second compound 0.316 µM, first compound 0.0316 µM
[8] = second compound 0.316 µM, first compound 0.1 µM
[9] = second compound 0.316 µM, first compound 0.316 µM
[10] = second compound 0.316 µM, first compound 1 µM
[11] = second compound 0.316 µM, first compound 3.16 µM
[12] = second compound 0.316 µM, first compound 10 µM
[13] = second compound 1 µM, first compound 0.0316 µM
[14] = second compound 1 µM, first compound 0.1 µM
[15] = second compound 1 µM, first compound 0.316 µM
[16] = second compound 1 µM, first compound 1 µM
[17] = second compound 1 µM, first compound 3.16 µM
[18] = second compound 1 µM, first compound 10 µM
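Also: spheroids exposed to compound for seven days.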
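For viability, T/C in this document: 100% = DMSO vehicle control wells.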

`NC(=O)C(=Cn1cnc(-c2cc(C(F)(F)F)cc(C(F)(F)F)c2)n1)c1cncnc1` + Cc1c(S(C)(=O)=O)c(-c2cc(F)cc(N3CCN(c4ccc(NS(=O)(=O)c5ccc(NC(CCN6CCC(C(=O)OCCCP(=O)(O)O)CC6)CSc6ccccc6)c(S(=O)(=O)C(F)(F)F)c5)cc4)CC3)c2)c(-c2ccc(Cl)cc2)n1C(C)C was tested, and the IC50 (second compound 0.1 µM) was 30.5 nM, the IC50 (second compound 0.316 µM) was 37.3 nM and the IC50 (second compound 1 µM) was 31.5 nM. For the same molecule, the IC50 (second compound 3.16 µM) was 29.6 nM, the IC50 (second compound 10 µM) was 26.1 nM and the viability, T/C (second compound 0.1 µM, first compound 0.000949 µM) was 98.5%. It also gave a viability, T/C (second compound 0.1 µM, first compound 0.003 µM) of 93.8%, a viability, T/C (second compound 0.1 µM, first compound 0.00949 µM) of 74.5% and a viability, T/C (second compound 0.1 µM, first compound 0.03 µM) of 53.2%. It also gave a viability, T/C (second compound 0.1 µM, first compound 0.0949 µM) of 22%, a viability, T/C (second compound 0.1 µM, first compound 0.3 µM) of 11% and a viability, T/C (second compound 0.316 µM, first compound 0.000949 µM) of 78.1%. The viability, T/C (second compound 0.316 µM, first compound 0.003 µM) was 82.4%, the viability, T/C (second compound 0.316 µM, first compound 0.00949 µM) was 70% and the viability, T/C (second compound 0.316 µM, first compound 0.03 µM) was 58%. It also gave a viability, T/C (second compound 0.316 µM, first compound 0.0949 µM) of 23%, a viability, T/C (second compound 0.316 µM, first compound 0.3 µM) of 8.76% and a viability, T/C (second compound 1 µM, first compound 0.000949 µM) of 83.4%. For the same molecule, the viability, T/C (second compound 1 µM, first compound 0.003 µM) was 74%, the viability, T/C (second compound 1 µM, first compound 0.00949 µM) was 76.6% and the viability, T/C (second compound 1 µM, first compound 0.03 µM) was 49.5%. It also gave a viability, T/C (second compound 1 µM, first compound 0.0949 µM) of 23%, a viability, T/C (second compound 1 µM, first compound 0.3 µM) of 7.77% and a viability, T/C (second compound 3.16 µM, first compound 0.000949 µM) of 94.8%. The viability, T/C (second compound 3.16 µM, first compound 0.003 µM) was 82.7%, the viability, T/C (second compound 3.16 µM, first compound 0.00949 µM) was 77.5% and the viability, T/C (second compound 3.16 µM, first compound 0.03 µM) was 50.6%. The viability, T/C (second compound 3.16 µM, first compound 0.0949 µM) was 19.3%, the viability, T/C (second compound 3.16 µM, first compound 0.3 µM) was 7.61% and the viability, T/C (second compound 10 µM, first compound 0.000949 µM) was 85.6%. The viability, T/C (second compound 10 µM, first compound 0.003 µM) was 77.2%, the viability, T/C (second compound 10 µM, first compound 0.00949 µM) was 68.4% and the viability, T/C (second compound 10 µM, first compound 0.03 µM) was 49.9%. For the same molecule, the viability, T/C (second compound 10 µM, first compound 0.0949 µM) was 19.3% and the viability, T/C (second compound 10 µM, first compound 0.3 µM) was 7.73%.
In the case of `C=C(F)C(=O)N1CCN(c2nc(OCC3CCCN3C)nc3c2CCN(c2cccc4cccc(Cl)c24)C3)CC1CC#N` (stereo not given) + CNC(C)C(=O)NC1CN(S(=O)(=O)c2cccc(S(=O)(=O)N3CCC4CCC(C(=O)NC(c5ccccc5)c5ccccc5)N4C(=O)C(NC(=O)C(C)NC)C3)c2)CCC2CCC(C(=O)NC(c3ccccc3)c3ccccc3)N2C1=O, the IC50 (second compound 0.01 µM) is reported as 2550 nM, the IC50 (second compound 0.0316 µM) is reported as 2200 nM and the IC50 (second compound 0.1 µM) is reported as 1340 nM. The IC50 (second compound 0.316 µM) was 1210 nM, the IC50 (second compound 1 µM) was 505 nM and the viability, T/C (second compound 0.01 µM, first compound 0.0316 µM) was 80%. It also gave a viability, T/C (second compound 0.01 µM, first compound 0.1 µM) of 89.3%, a viability, T/C (second compound 0.01 µM, first compound 0.316 µM) of 80.1% and a viability, T/C (second compound 0.01 µM, first compound 1 µM) of 74.8%. It also gave a viability, T/C (second compound 0.01 µM, first compound 3.16 µM) of 44.3%, a viability, T/C (second compound 0.01 µM, first compound 10 µM) of 0.18% and a viability, T/C (second compound 0.0316 µM, first compound 0.0316 µM) of 71.4%. For the same molecule, the viability, T/C (second compound 0.0316 µM, first compound 0.1 µM) was 71%, the viability, T/C (second compound 0.0316 µM, first compound 0.316 µM) was 71.4% and the viability, T/C (second compound 0.0316 µM, first compound 1 µM) was 63.9%. For the same molecule, the viability, T/C (second compound 0.0316 µM, first compound 3.16 µM) was 43.5%, the viability, T/C (second compound 0.0316 µM, first compound 10 µM) was 0.14% and the viability, T/C [1] was 61%. It also gave a viability, T/C [2] of 67.3%, a viability, T/C [3] of 64.6% and a viability, T/C [4] of 53.2%. For the same molecule, the viability, T/C [5] was 35.2%, the viability, T/C [6] was 0.14% and the viability, T/C [7] was 65.4%. The viability, T/C [8] was 66.1%, the viability, T/C [9] was 64% and the viability, T/C [10] was 45%. It also gave a viability, T/C [11] of 40.7%, a viability, T/C [12] of 0.15% and a viability, T/C [13] of 58.7%. For the same molecule, the viability, T/C [14] was 59.2%, the viability, T/C [15] was 57.5% and the viability, T/C [16] was 40.4%. It also gave a viability, T/C [17] of 27.4% and a viability, T/C [18] of 0.2%.
In the case of `O=C(c1cc(Cc2n[nH]c(=O)c3ccccc23)ccc1F)N1CCN(C(=O)C2CC2)CC1` + Cc1c(S(C)(=O)=O)c(-c2cc(F)cc(N3CCN(c4ccc(NS(=O)(=O)c5ccc(NC(CCN6CCC(C(=O)OCCCP(=O)(O)O)CC6)CSc6ccccc6)c(S(=O)(=O)C(F)(F)F)c5)cc4)CC3)c2)c(-c2ccc(Cl)cc2)n1C(C)C, the IC50 (second compound 0.1 µM) is reported as over 10000 nM, the IC50 (second compound 0.316 µM) is reported as 9750 nM and the IC50 (second compound 1 µM) is reported as 7040 nM. The IC50 (second compound 3.16 µM) was 5750 nM, the IC50 (second compound 10 µM) was over 10000 nM and the viability, T/C [1] was 77.8%. The viability, T/C [2] was 81.8%, the viability, T/C [3] was 80% and the viability, T/C [4] was 71.8%. It also gave a viability, T/C [5] of 66.8%, a viability, T/C [6] of 56.2% and a viability, T/C [7] of 87.3%. For the same molecule, the viability, T/C [8] was 79.3%, the viability, T/C [9] was 80.2% and the viability, T/C [10] was 67.6%. The viability, T/C [11] was 73.9%, the viability, T/C [12] was 47.8% and the viability, T/C [13] was 77%. It also gave a viability, T/C [14] of 72.8%, a viability, T/C [15] of 65.7% and a viability, T/C [16] of 71.3%. The viability, T/C [17] was 58.1%, the viability, T/C [18] was 45.8% and the viability, T/C (second compound 3.16 µM, first compound 0.0316 µM) was 75%. It also gave a viability, T/C (second compound 3.16 µM, first compound 0.1 µM) of 68.7%, a viability, T/C (second compound 3.16 µM, first compound 0.316 µM) of 74.5% and a viability, T/C (second compound 3.16 µM, first compound 1 µM) of 65.5%. The viability, T/C (second compound 3.16 µM, first compound 3.16 µM) was 59.2%, the viability, T/C (second compound 3.16 µM, first compound 10 µM) was 41.8% and the viability, T/C (second compound 10 µM, first compound 0.0316 µM) was 75.9%. The viability, T/C (second compound 10 µM, first compound 0.1 µM) was 80.5%, the viability, T/C (second compound 10 µM, first compound 0.316 µM) was 72.1% and the viability, T/C (second compound 10 µM, first compound 1 µM) was 70.6%. It also gave a viability, T/C (second compound 10 µM, first compound 3.16 µM) of 60.6% and a viability, T/C (second compound 10 µM, first compound 10 µM) of 55.3%.
